{"source": "paper PMC4092041", "about": "(Journal of cardiovascular pharmacology, 2014)", "key": {"[1]": {"assay": "Stability of EpFAs at 37°C, neutral pH", "type": "physicochemical"}, "[2]": {"system": "P450 metabolites of the ARA cascade / sEH", "assay": "Oxylipin profiling: P450 and sEH metabolites", "conditions": "for Increase in plasma levels of the infused EpFA vs Ang II infused animals: subcutaneous infusion, corresponding groups"}, "COX pathway": {"system": "COX pathway", "conditions": "kidney; P < 0.05"}, "sEH": {"system": "sEH", "conditions": "cited from earlier work"}, "[3]": {"system": "angiotensin-II dependent hypertension", "assay": "Systolic blood pressure", "type": "in vivo, mice", "conditions": "overall mixed effects analysis, all days; TPPU alone 0.2 mg/kg in drinking water; P < 0.05"}, "[4]": {"system": "angiotensin-II dependent hypertension", "conditions": "TPPU 0.2 and 0.6 mg/kg; cited from earlier work"}, "LOX pathway": {"system": "LOX pathway", "assay": "Oxylipin profiling: LOX metabolites", "type": "in vivo, mice", "conditions": "kidney; TPPU 0.2 mg/kg"}, "Body weight gain": {"assay": "Body weight gain", "type": "in vivo", "conditions": "Ang II infused mice"}, "[5]": {"conditions": "cited from earlier work"}}}
{"compound": "CCCCCC1OC1C/C=C\\C/C=C\\C/C=C\\CCCC(=O)O", "note": "(stereo not shown) [14, 15-EET, epoxyeicosatrienoic acid]", "values": [{"measurement": "Stability", "setting": "[1]", "value": "quite stable"}, {"measurement": "Increase in plasma levels of the infused EpFA vs Ang II infused animals", "setting": "[2]; P < 0.05", "value": "approximately 2 fold"}]}
{"compound": "CCC1OC1C/C=C\\C/C=C\\C/C=C\\C/C=C\\C/C=C\\CCC(=O)O", "note": "(stereo not shown) [19, 20-EDP, epoxydocosapentaenoic acid]", "values": [{"measurement": "Stability", "setting": "[1]", "value": "quite stable"}, {"measurement": "Tissue levels of PGE2 vs Ang II infusion alone", "setting": "COX pathway", "value": "significantly decreased by half"}, {"measurement": "Tissue levels of 19, 20-EDP relative to tissue levels of 14, 15-EET", "setting": "[2]; animals receiving these EpFAs", "value": 6, "unit": "times"}, {"measurement": "Renal levels of 14, 15-EET vs Ang II infused animals", "setting": "[2]; kidney, TPPU 0.2 mg/kg", "value": "significantly decreased"}, {"measurement": "Increase in plasma levels of the infused EpFA vs Ang II infused animals", "setting": "[2]; P < 0.05", "value": "approximately 2 fold"}, {"measurement": "Rate of metabolism by sEH compared to most other fatty acid epoxides tested", "setting": "sEH", "value": "more slowly metabolized"}]}
{"compound": "CCC(=O)N1CCC(NC(=O)Nc2ccc(OC(F)(F)F)cc2)CC1", "note": "[TPPU]", "values": [{"measurement": "Renal PGD2 vs Ang II infusion and 19, 20-EDP alone", "setting": "COX pathway", "value": "decreased"}, {"measurement": "SBP (percent change from baseline) vs Ang II infused controls", "setting": "[3]", "value": "statistically lower SBP"}, {"measurement": "Increase in renal DiHOMEs vs 19, 20-EDP alone or Ang II infusion", "setting": "[2]; TPPU 0.2 mg/kg, P < 0.05", "value": "approximately 3 fold"}, {"measurement": "Renal levels of 19, 20-EDP vs Ang II alone or 19, 20-EDP treated animals", "setting": "[2]; kidney, TPPU 0.2 mg/kg", "value": "significantly increased"}, {"measurement": "Summed plasma concentration of DiHDPEs vs 19, 20-EDP treatment alone", "setting": "[2]; plasma, TPPU 0.2 mg/kg", "value": "decreased significantly"}, {"measurement": "Blood pressure in Ang II hypertension", "setting": "[4]", "value": "lower blood pressure to near baseline levels"}, {"measurement": "Tissue levels of 15(S)-HETrE vs 19, 20-EDP treatment alone", "setting": "LOX pathway", "value": "increased"}, {"measurement": "Tissue levels of 15-HETE vs 19, 20-EDP treatment alone", "setting": "LOX pathway", "value": "increased"}, {"measurement": "Body weight gain", "setting": "Body weight gain", "value": "did not alter body weight gain"}]}
{"compound": "CCCCc1nc(Cl)c(CO)n1Cc1ccc(-c2ccccc2-c2nn[nH]n2)cc1", "note": "[losartan]", "values": [{"measurement": "Adverse effect on monovalent cation balance", "setting": "[5]", "value": "hyperkalemia"}, {"measurement": "BP in normotensive animals", "setting": "[5]", "value": "reduced BP"}]}
